Test results taken from publication PMC11273930, “Bioactive Bioxanthracene and Cyclodepsipeptides from the Entomopathogenic Fungus Blackwellomyces roseostromatus BCC56290” (Antibiotics, 2024).
In brackets after ≈: the same amount, converted by molar mass. Several values for one entry are separate records, joined by “and”; a condition that tells them apart may be missing. Equal values may be shown once.

Assays:
[1] = test system: Pichia anomala (DSM 6766); assay: Antimicrobial assay (MIC); assay type: cell-based; design: key to MIC (µg/mL): -: no inhibition observed
Experimental: (§1) The antimicrobial activity of the isolated secondary metabolites was determined using our established protocol, against clinically relevant microorganisms obtained from the German Collection of Microorganisms and Cell Cultures (DSMZ, Braunschweig, Germany). These included Staphylococcus aureus (DSM 346), Bacillus subtilis (DSM 10), Acinetobacter baumanii (DSM 30008), Escherichia coli (DSM 1116), Chromobacterium violaceum (DSM 30191), Pseudomonas aeruginosa (PA14), Mycolicibacterium smegmatis (ATCC 700084), Candida albicans (DSM 1665), Mucor hiemalis (DSM 2656), Rhodotorula glutinis (DSM 10134), Schizosaccharomyces pombe (DSM 70572) and Pichia anomala (DSM 6766). Nystatin was used as an antifungal positive control whereas oxytetracycline, ciprofloxacin, gentamicin, and kanamycin were used as positive controls against Gram-positive and Gram-negative bacteria.

[2] = test system: Mucor hiemalis (DSM 2656); assay: Antimicrobial assay (MIC); assay type: cell-based; design: key to MIC (µg/mL): -: no inhibition observed
Experimental: as §1

[3] = test system: Rhodotorula glutinis (DSM 10134); assay: Antimicrobial assay (MIC); assay type: cell-based; design: key to MIC (µg/mL): -: no inhibition observed
Experimental: as §1

[4] = test system: Candida albicans (DSM 1665); assay: Antimicrobial assay (MIC); assay type: cell-based; design: key to MIC (µg/mL): -: no inhibition observed
Experimental: as §1

[5] = test system: Schizosaccharomyces pombe (DSM 70572); assay: Antimicrobial assay (MIC); assay type: cell-based; design: key to MIC (µg/mL): -: no inhibition observed
Experimental: as §1

[6] = test system: Bacillus subtilis (DSM 10); assay: Antimicrobial assay (MIC); assay type: cell-based; design: key to MIC (µg/mL): -: no inhibition observed
Experimental: as §1

[7] = test system: Acinetobacter baumanii (DSM 30008); assay: Antimicrobial assay (MIC); assay type: cell-based; design: key: -: no inhibition observed
Experimental: as §1

[8] = test system: Mycobacterium smegmatis (ATCC 700084); assay: Antimicrobial assay (MIC); assay type: cell-based; design: key to MIC (µg/mL): -: no inhibition observed
Experimental: as §1

[9] = test system: Pseudomonas aeruginosa (PA14); assay: Antimicrobial assay (MIC); assay type: cell-based; design: key to MIC (µg/mL): -: no inhibition observed
Experimental: as §1

[10] = test system: Chromobacterium violaceum (DSM 30191); assay: Antimicrobial assay (MIC); assay type: cell-based; design: key to MIC (µg/mL): -: no inhibition observed
Experimental: as §1

[11] = test system: Staphylococcus aureus (DSM 346); assay: Antimicrobial assay (MIC); assay type: cell-based; design: key to MIC (µg/mL): -: no inhibition observed
Experimental: as §1

[12] = test system: Escherichia coli (DSM 1116); assay: Antimicrobial assay (MIC); assay type: cell-based; design: key to MIC (µg/mL): -: no inhibition observed
Experimental: as §1

[13] = test system: KB3.1 (cervix) endocervical adenocarcinoma; assay type: cell-based, human; details: MTT assay, KB3.1 (cervix); read-out: IC50
Experimental: (§2) In vitro cytotoxic activity of the isolated compounds was tested by applying the MTT (3-(4,5-dimethylthiayol-2-yl)-2,5-diphenyltetrazolium bromide) assay as previously reported. The mammalian cell lines used in the tests were sourced from DSMZ and included mouse fibroblasts (L929) and endocervical adenocarcinoma (KB3.1), human lung carcinoma (A549), breast adenocarcinoma (MCF-7), human ovarian cancer (SKOV-3), prostate carcinoma (PC-3), and epidermoid carcinoma cells (A431).

[14] = test system: L929 (murine) mouse fibroblasts; assay: Cytotoxicity (MTT) assay; assay type: cell-based
Experimental: as §2

Caenorhabditis elegans = assay: Nematicidal activity assay; assay type: in vivo; details: 18 h
Experimental: The nematicidal activity assay was conducted following a previously described procedure with slight modifications. C. elegans was cultured on nematode growth medium (NGM) containing 3 g NaCl, 20 g agar, 2.5 g peptone, 1 mL 1 M CaCl2, 25 mL of 1 M (pH 6.0) KPO4, 1 mL 1 M MgSO4, and 1 mL cholesterol (5 mg/mL in ethanol) per liter of medium. Plates were coated with Escherichia coli strain OP50, which served as the food source for nematodes. Synchronization of the nematode population was performed using a high egg density plate (~120 h). The plate was rinsed three times with 4 mL of 0.9% NaCl solution and then transferred to a 15 mL falcon tube. The nematode suspension was centrifuged at 1000 rpm for 3 min, and the supernatant was discarded. This procedure was repeated until a clear nematode suspension was obtained. After the last washing step, 2 mL of the suspension was mixed with 5 mL of bleaching solution (1 mL sodium hypochlorite solution, 0.5 mL 5 M NaOH, and 3.5 mL Milli-Q water). The solution was gently shaken for approximately 5 min to break down the nematode tissue, and monitored under the microscope. The reaction was stopped by adding 7 mL 0.9% NaCl solution when traces of adults were still visible. Subsequently, the suspension was centrifuged at 2500 rpm for 2 min and washed 3 times as previously described. After the final washing step, the supernatant was removed, and the volume was adjusted to 7 mL with 0.9% NaCl solution. The nematode egg suspension was incubated at 23 °C on a rotary shaker at 80 rpm for 18 h. The hatched nematodes were transferred to a fresh NGM plate supplemented with E.coli OP50. After 50–70 h, the J4 and adult C. elegans were washed from the plate as mentioned above. The nematode concentration was determined and diluted to approximately 1000 nematodes/mL.
Pure compounds were tested at concentrations of 10, 50, and 100 μg/mL in 48-well microtiter plates. The compounds, dissolved in MeOH, were added to the well plate and subsequently dried under nitrogen. After complete evaporation of the solvent, 300 μL of the nematode suspension (1000 nematodes/mL) was added to the compounds. Each treatment was replicated three times. MeOH was used as the negative control while 1 μg/mL Ivermectin served as the positive control. Nematodes were monitored 15 min after inoculation, and the plates were incubated at 24 °C and 150 rpm for 18 h. After incubation, both alive and dead nematodes were counted in three replicates under a stereomicroscope, and the mortality rate was calculated. Erect and non-moving nematodes were considered dead. […] The observed percentage of dead nematodes was corrected by considering the natural mortality observed in the negative control, using the Schneider-Orelli formula [30].

[15] = 10 µg/mL, J4 and adult C. elegans, 24 °C, corrected by Schneider-Orelli formula vs methanol control, mean ± SD (n ≥ 3), < 0: less active than negative control
[16] = 50 µg/mL, J4 and adult C. elegans, 24 °C, corrected by Schneider-Orelli formula vs methanol control, mean ± SD (n ≥ 3)
[17] = 100 µg/mL, J4 and adult C. elegans, 24 °C, corrected by Schneider-Orelli formula vs methanol control, mean ± SD (n ≥ 3)

Compound: C[C@@H]1[C@H](O)[C@@H](C)/C=C/C=C/CC/C=C/C=C/C=C/C=C/C(O[C@H]2O[C@H](C)[C@@H](O)[C@H](N)[C@@H]2O)CC2O[C@](O)(CC(O)C(O)CCC(O)CC(O)CC(O)CC(=O)O[C@H]1C)CC(O)C2C(=O)O (some centres unmarked) [Nystatin, reference compound]
- MIC [1]: 4.2 µg/mL (≈ 4.54 µM)
- MIC [2]: 4.2 µg/mL (≈ 4.54 µM)
- MIC [3]: 1.0 µg/mL (≈ 1.08 µM)
- MIC [4]: 2.1 µg/mL (≈ 2.27 µM)
- MIC [5]: 2.1 µg/mL (≈ 2.27 µM)

Compound: CN(C)[C@@H]1C(O)=C(C(N)=O)C(=O)[C@@]2(O)C(O)=C3C(=O)c4c(O)cccc4[C@@](C)(O)[C@H]3[C@H](O)[C@@H]12 [Oxytetracyclin, reference compound]
- MIC ([6]; DSM10): 16.6 µg/mL (≈ 36.1 µM)

Compound: ES-242-9 [Compound 1]
- MIC (µg/mL) [7]: -
- MIC (µg/mL) [8]: -
- MIC (µg/mL) [1]: -
- MIC (µg/mL) [2]: -
- MIC (µg/mL) [9]: -
- MIC (µg/mL) [10]: -
- MIC (µg/mL) [11]: -
- MIC (µg/mL) [3]: -
- MIC (µg/mL) [6]: -
- MIC (µg/mL) [4]: -
- MIC (µg/mL) [12]: -
- MIC (µg/mL) [5]: -
- IC50 [13]: 29.2 µM
- IC50 [14]: > 35 µM
- Corrected mortality rate (%) (Caenorhabditis elegans; [15]): 33.4 ± 5.3%
- Corrected mortality rate (%) (Caenorhabditis elegans; [16]): 31.7 ± 7.1%
- Corrected mortality rate (%) (Caenorhabditis elegans; [17]): 51.1 ± 5.3% and 51.1%

Compound: HMDA-Trp-Ala-Phe (lariat or depsi) [Compound 2, Beauveriolide T]
- MIC (µg/mL) [7]: -
- MIC (µg/mL) [8]: -
- MIC (µg/mL) [1]: -
- MIC (µg/mL) [2]: -
- MIC (µg/mL) [9]: -
- MIC (µg/mL) [10]: -
- MIC (µg/mL) [11]: -
- MIC (µg/mL) [3]: -
- MIC (µg/mL) [6]: -
- MIC (µg/mL) [4]: -
- MIC (µg/mL) [12]: -
- MIC (µg/mL) [5]: -
- IC50 [13]: > 35 µM
- IC50 [14]: > 35 µM
- Corrected mortality rate (%) (Caenorhabditis elegans; [15]): 11.6 ± 6.4%
- Corrected mortality rate (%) (Caenorhabditis elegans; [16]): 33.1 ± 6.7%
- Corrected mortality rate (%) (Caenorhabditis elegans; [17]): 36.1 ± 7.3%

Compound: Ivermectin [reference compound]
- Corrected mortality rate (%) (Caenorhabditis elegans; 1 µg/mL, positive control, C. elegans, corrected mortality, mean ± SD): 87.4 ± 6.5%
